Experiments:
[1] = system: thioglycolate elected murine peritoneal exudate cells; experiment: RNI generation by thioglycolate-elicited peritoneal exudate cells; format: cell-based; conditions: for RNI (reactive nitrogen intermediate): RNIP 50 nm
Method: From the sequence of the CAP18 cDNA, it was apparent that the putative N-terminal peptide of CAP18 was in fact an internal fragment of the CAP18 protein. We therefore tried to reconfirm the original protein sequence. Neutrophil-derived heparin bound cationic proteins were prepared as described above and applied to a C18 reverse phase HPLC (FIG. 1). We sequenced the major peaks. Peaks at fractions 14.5 and 15.2 correspond to defensins MCP1 and MCP2 (Territo et al. (1989) J. Clin. Invest. 84:2017-2019), respectively. Fraction 25.8 is macrophage related protein 14 (MRP14) (Odink et al. (1987) Nature 330:80-82). The fraction at 20.3 minutes corresponds to a fragment of CAP18 of approximately 4-5 kD. […] The murine macrophage cell line RAW 264.7 (obtained from ATCC) and thioglycolate-elicited murine peritoneal exudate cells are used to produce RNI. Cells are cultured at 1×10^6 /ml. in RPMI-1640 +2.5% FCS in 24 well plates in the presence or absence of different concentrations of LPS or murine rlFNγ. After 24 hr. incubation at 37° C. the cell free supernatant is collected and tested for the presence of RNI. Accumulation of nitrite in the medium is measured by a colorimetric assay based on the Griess reaction (Green et al. (1982) Anal. Biochem. 126:11) using sodium nitrite as standards. Sample (50 μl) is mixed with 50 μl of Griess reagent (1% sulfanilamide, 0.1% naphthalene diamine dihydrochloride, 2.5% H3 PO4) and after 10 min. at room temperature absorbance is read at 570 nm.

ddY mice = experiment: Tissue factor lethality model; format: in vivo; conditions: for Survival (%) / No. of Mice (dead/total) / Survival time: Tissue factor 1.0 mg/mouse IV; for Survival (%): control 0; for No. of Mice (dead/total): control 7/7; for Survival time: control 187 ± 70
Method: Reference tissue factor (Simplastin, 1 mg/mouse) was IV injected into ddY mice (male, 20-week-old, 38-45 g) incubated with or without peptide.
The anticoagulant activity of the RNIP peptides was studied in an acute animal model. Direct injection of tissue factor IV (Simplastin, 1 mg/mouse) produces acute intravascular coagulation and death within three minutes.
^a Tissue factor (Simplastin, 10 mg/ml was mixed with equal volume of
synthetic peptide 100 μg/ml or 50 μg/ml and 0.2 ml of the mixture
injected IV. ddY mice (20 weeks, 38-45 gm).

human mononuclear cells = experiment: LPS-induced tissue factor by human mononuclear cells; format: cell-based; conditions: for Δ Units (%): LPS alone 100, 960 min
Method: Human mononuclear cells were separated from citrated peripheral blood by centrifugation over Sodium-metrizoate-Ficoll (lymphocyte Separation Medium, Japan Antibody Institute, Gumma). The resulting mixed mononuclear cell suspension was washed 3 times with RPMI 1640 media. Cell suspension (1×10^6 /ml) was stimulated with LPS for 16 to 18 hr.
Veronal buffered saline (VBS) was added to the cell pellet, lysed by 3 cycles of freeze/thaw and sonicated for 10 sec with a hand-held sonicator microbe (Handy Sonic, model UR-20P, Tomy Seiko LTD, Tokyo). Tissue factor activity was tested in modified unactivated partial thromboplastin time (7). One tenth ml of cell lysate (1×10^6 /ml) was preincubated with mouse plasma at 37° C. for 3 min. Then 0.1 ml of 25 mM-CaCl2 which contains phospholipid was added to the mixture and clotting time was measured using a fibrometer (Bio Quest Division, Becton Dickinson, Cokeysville, USA). A standard curve obtained from serial two-fold dilutions of rabbit brain thromboplastic (Simplastin, Ono Pharmaceutical Co.) was used to transpose tissue factor activity into arbitrary tissue factor units (1 μg/ml) suspension of rabbit brain was assigned a value of 1,000 units).
The mean tissue factor units+standard error was determined from three to four samples. Student's t test for unpair data was used to determine the statistically significant differences. A two-tailed P value of <0.05 was considered significant.
S. minnesota SmoothLPS (2 μg/ml) was preincubated with equal volume of
each LPSbinding protein (28HA) at 37° C. for 45 minutes, and the
mixture was added to the cells and cultured for 16 hours.

Klebsiella pneumoniae = experiment: Bacterial proliferation, 3H-thymidine incorporation; format: cell-based
Method: (§1) Bacteria were grown in trypticase broth overnight.
(§2) To corroborate the anti-bacterial activity shown in the CFU assays, inhibition of proliferation of bacteria was tested directly using a ^3 H-thymidine incorporation assay. […] In summary although there is some strain to strain variation in the IC50, all of the Gram-negativestrains tested in two different types of assays were sensitive to these anti-microbial peptides.

[2] = system: Staphylococcus aureus, coagulase positive; experiment: as above; format: cell-based
Method: as §1, §2

Pseudomonas aeruginosa = experiment: as above; format: cell-based
Method: as §1, §2

Pseudomonas apacia = experiment: as above; format: cell-based
Method: as §1, §2

Streptococcus pneumoniae = experiment: as above; format: cell-based
Method: as §1, §2

E. coli (HB101) = experiment: as above; format: cell-based
Method: as §1, §2

Streptococcus pyogenes = experiment: as above; format: cell-based
Method: as §1, §2

[3] = first experiment, LPS 0.1 μg/ml
[4] = second experiment, LPS 0.1 μg/ml
[5] = RNIP 6 μg/ml (so in the source)

RNIP: reactive nitrogen inhibitory protein, amino acids 135-171 of SEQ ID NO:4 (rabbit CAP18 C-terminus); purified from granulocytes or synthetic (#197) (GLRKRLRKFRNKIKEKLKKIGQKIQGLLPKLAPRTDY)
RNI (reactive nitrogen intermediate) ([1]; IFN 500 U/ml, without RNIP 4.0 ± 0.8): 1.1 µM
RNI (reactive nitrogen intermediate) ([1]; LPS + IFNγ 1 ng + 500 U/ml, without RNIP 26 ± 0.6): 14 ± 0.7 µM
IC50 ([1]; read-out: IC50 for inhibition of gamma interferon stimulated nitrogen radical release): < 50 nM
Survival (%) (ddY mice; Peptide #197 5 μg/mouse): 43%
No. of Mice (dead/total) (ddY mice; Peptide #197 5 μg/mouse): 4/7
Survival time (ddY mice; Peptide #197 5 μg/mouse): 228 ± 48 s
Survival (%) (ddY mice; Peptide #197 10 μg/mouse, p < 0.05): 57%
No. of Mice (dead/total) (ddY mice; Peptide #197 10 μg/mouse): 3/7
Survival time (ddY mice; Peptide #197 10 μg/mouse): 305 s
reduction of mortality (ddY mice; tissue factor IV 1 mg/mouse): 57%
Inhibition (%) (human mononuclear cells; [3]): 51%
Tissue Factor, figure in parentheses (relative to unstimulated = 1.0) (human mononuclear cells; first experiment, LPS 0.1 μg/ml, LPS alone 16.6): 9.0
Δ Units (%) (human mononuclear cells; [3]): 49%
Δ Units (human mononuclear cells; first experiment, LPS 0.1 μg/ml, LPS alone 17118): 8342
Tissue Factor (human mononuclear cells; first experiment, LPS 0.1 μg/ml, LPS alone 18214 ± 4192, RNIP 2 HA units, CAP-18 1 HA unit): 9438 ± 293 Units × 10^3 /3.6 × 10^4 cells
Inhibition (%) (human mononuclear cells; [4]): 41%
Tissue Factor, figure in parentheses (relative to unstimulated = 1.0) (human mononuclear cells; second experiment, LPS 0.1 μg/ml, LPS alone 14.7): 9.0
Δ Units (%) (human mononuclear cells; [4]): 59%
Δ Units (human mononuclear cells; second experiment, LPS 0.1 μg/ml, LPS alone 6726): 3950
Tissue Factor (human mononuclear cells; second experiment, LPS 0.1 μg/ml, LPS alone 7218 ± 264, HA units HP-1 4, HP-2 2, RNIP 2, CAP-18 1): 4442 ± 982 Units × 10^3 /3.6 × 10^4 cells
Tissue Factor, figure in parentheses (relative to unstimulated = 1.0) (human mononuclear cells; second experiment, no LPS): 1.3
Δ Units (human mononuclear cells; second experiment, no LPS): 144
Tissue Factor (human mononuclear cells; second experiment, no LPS, unstimulated 492 ± 75): 636 ± 141 Units × 10^3 /3.6 × 10^4 cells
Percent inhibition of proliferation (Klebsiella pneumoniae; RNIP 1.25 μg/ml): 14%
Percent inhibition of proliferation (Klebsiella pneumoniae; RNIP 2.5 μg/ml): 17%
Percent inhibition of proliferation (Klebsiella pneumoniae; RNIP 5.0 μg/ml): 60%
Percent inhibition of proliferation (Klebsiella pneumoniae; [5]): 4%
Percent inhibition of proliferation ([2]; RNIP 1.25 μg/ml): 57%
Percent inhibition of proliferation ([2]; RNIP 2.5 μg/ml): 72%
Percent inhibition of proliferation ([2]; RNIP 5.0 μg/ml): 83%
Percent inhibition of proliferation [2, 5]: 23%
Percent inhibition of proliferation (Pseudomonas aeruginosa; RNIP 1.25 μg/ml): 82%
Percent inhibition of proliferation (Pseudomonas aeruginosa; RNIP 2.5 μg/ml): 96%
Percent inhibition of proliferation (Pseudomonas aeruginosa; RNIP 5.0 μg/ml): 99%
Percent inhibition of proliferation (Pseudomonas aeruginosa; [5]): 75%
Percent inhibition of proliferation (Pseudomonas apacia; RNIP 1.25 μg/ml): 80%
Percent inhibition of proliferation (Pseudomonas apacia; RNIP 2.5 μg/ml): 99%
Percent inhibition of proliferation (Pseudomonas apacia; RNIP 5.0 μg/ml): 99%
Percent inhibition of proliferation (Pseudomonas apacia; [5]): 81%
Percent inhibition of proliferation (Streptococcus pneumoniae; RNIP 1.25 μg/ml): 47%
Percent inhibition of proliferation (Streptococcus pneumoniae; RNIP 2.5 μg/ml): 68%
Percent inhibition of proliferation (Streptococcus pneumoniae; RNIP 5.0 μg/ml): 93%
Percent inhibition of proliferation (Streptococcus pneumoniae; [5]): 31%
Percent inhibition of proliferation (E. coli (HB101); RNIP 1.25 μg/ml): 88%
Percent inhibition of proliferation (E. coli (HB101); RNIP 2.5 μg/ml): 99%
Inhibition (%) of proliferation (E. coli (HB101); RNIP 2.5 μg/ml, FCS 0 %): 94 ± 10.3%
Inhibition (%) of proliferation (E. coli (HB101); RNIP 2.5 μg/ml, FCS 1 %): 91 ± 10.9%
Inhibition (%) of proliferation (E. coli (HB101); RNIP 2.5 μg/ml, FCS 5 %): 87 ± 3.1%
Inhibition (%) of proliferation (E. coli (HB101); RNIP 2.5 μg/ml, FCS 10 %): 78 ± 5.5%
Percent inhibition of proliferation (E. coli (HB101); RNIP 5.0 μg/ml): 99%
Percent inhibition of proliferation (E. coli (HB101); [5]): 81%
Percent inhibition of proliferation (Streptococcus pyogenes; RNIP 1.25 μg/ml): 79%
Percent inhibition of proliferation (Streptococcus pyogenes; RNIP 2.5 μg/ml): 90%
Percent inhibition of proliferation (Streptococcus pyogenes; RNIP 5.0 μg/ml): 96%
Percent inhibition of proliferation (Streptococcus pyogenes; [5]): 74%
